According to patent US12624031B2, “Inhibitors of ubiquitin specific peptidase 22 (USP22) and uses thereof for treating diseases and disorders” (Northwestern University, priority 2022, dated 2026):

How the values were obtained:
[1] = system: FoxP3 expression in CD4+ natural T-regulatory cells; assay: FoxP3 expression in natural T-regulatory cells by flow cytometry; assay type: cell-based, murine; details: concentration of 1-2 ug
Method: FIGS. 3 and 4: Change in FoxP3 expression in murine CD4+ natural T-regulatory cells. Murine lymphocytes were isolated from the spleens and lymph nodes and cultured with varying concentrations of inhibitor (0.25 μg/mL to 2 μg/mL) or DMSO, anti-CD3, anti-CD28, TGFβ, and IL-2. After two days, lymphocytes were analyzed by flow cytometry for FoxP3 expression in natural T-regulatory (nTregs) gated on CD3+CD4+CD25+FoxP3+. (FIG. 3) Representative histograms of FITC::FoxP3 MFI in nTregs cultured with inhibitors at a concentration of 2 μg/mL. (FIG. 4) Representative plot of FITC::FoxP3 geometric MFI in nTregs across different concentrations of inhibitor.
We then analyzed whether treatment of Tregs with the compounds S106, 107 and 110 inhibits USP22 activity in Tregs as measured by FoxP3 expression levels by flow cytometry.

[2] = system: Foxp3 in human Treg cells; assay: Foxp3 MFI of human Treg cells; assay type: cell-based; details: low doses
Method: FIG. 6: Usp22i-S02 halts Usp22-mediated Foxp3 deubiqutination. A, Graphical representation of Foxp3 MFI change in WT versus 22KO iTreg cells treated with various doses of Usp22i-S02 (n=3). B, Representative histogram of Foxp3 MFI level in iTreg cells as Usp22 inhibitor concentration increases from 0-20 μg/mL. C, Cell survival of iTreg cells treated with various doses of Usp22i-S02 (n=3). D, FOXP3 and USP22 protein level in WT and 22KO mice treated with 10 μg/mL Usp22i-S02. E-F, Graphical and representative data of Foxp3 MFI of human Treg cells treated with various doses of Usp22i-S02 (n=3). G, Graphical representation of Foxp3 MFI in WT, Usp21-null, and Usp22-null Treg cells treated with Usp22i-S02 at 10 μg/mL (n=3). H, FOXP3 and USP22 protein degradation of cycloheximide (10 μg/mL) treated iTreg cells with or without the addition of 10 μg/mL of Usp22i-S02. I-J, Endogenous DUB assay IP in iTreg cells of USP22 with FOXP3 under increasing concentrations of Usp22i-S02. K, Foxp3 mRNA level in iTreg cells as Usp22 inhibitor concentration increases from 0-20 μg/mL (n=3). L, FOXP3 and USP22 level in WT iTreg cells with or without 20 μg/mL Usp22 inhibitor treated with 20 μM MG132. M, Graphical representation of the percentage of decrease of Foxp3 MFI in either WT or Usp22-null nTreg cells placed in low glucose conditions with or without the addition of 10 μg/mL of Usp22i-S02 (n=7-8). […]

For `N#Cc1c2c(c(Nc3ccccc3)n3c1nc1ccccc13)CCCC2` [USP22i-S02, 11-anilino-7,8,9,10-tetrahydrobenzimidazo[1,2-b]isoquinoline-6-carbonitrile], which “FoxP3 expression levels in Tregs” value [1] is on record?
Its value is “did not reduce the levels of FoxP3”.

And the “Foxp3 MFI in human Treg cells” value [2]?
Its value is “significantly decreased Foxp3 MFI”.

And the “viability of human Treg cells” value [2]?
The value was “little effect to cell viability”.
